Measured values published in patent US8618287B2, “Derivatives of triazines and uracils, their preparation and their application in human therapeutics” (Pierre Fabre Medicament, priority 2008, dated 2013).

target: T1, Human SCD-1 (Homo sapiens, UniProt O00767); test: Human SCD-1 enzymatic activity from microsomes of HepG2 cells (conversion of stearic acid into oleic acid); format: biochemical; settings: 10 μM compound; microsomal fraction of HepG2 cells; relative to carrier 0.1% DMSO; read-out: HSCD-1 (HEPG2) % inh. (10 μM)
T1 construct: adding 125 μg of microsomal fraction of HepG2 cells; host or cells: HepG2 human hepatocarcinoma cells (microsomal fraction)
T1 sequence (O00767 1-359): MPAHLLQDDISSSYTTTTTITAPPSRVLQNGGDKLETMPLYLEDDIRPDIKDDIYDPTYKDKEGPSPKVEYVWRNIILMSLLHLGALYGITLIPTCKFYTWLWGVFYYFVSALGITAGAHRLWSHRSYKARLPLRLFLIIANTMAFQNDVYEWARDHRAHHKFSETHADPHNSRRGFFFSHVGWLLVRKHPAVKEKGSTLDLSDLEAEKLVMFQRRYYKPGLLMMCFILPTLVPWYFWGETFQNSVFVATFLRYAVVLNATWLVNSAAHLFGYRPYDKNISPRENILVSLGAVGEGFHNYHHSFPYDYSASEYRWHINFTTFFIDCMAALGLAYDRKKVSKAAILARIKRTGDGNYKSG
Description: In vitro: Human SCD-1 enzymatic activity from microsomes of HepG2 cells after treatment with inhibitory compounds (inhibition %).
Human hepatocarcinoma HepG2 cells (ATCC, HB-8065) are grown to confluence and then trypsinized. The cell pellet is taken up in 10 mM Tris buffer (pH 7.4), saccharose (250 mM) DTT (1 mM) and then the cells are lyzed by sonication. The microsomes are obtained after centrifugation at 10,000 g for 20 minutes a 4° C. followed by centrifugation of the supernatant at 100,000 g for 60 minutes a 4° C. The pellet is taken up in 10 mM Tris buffer (pH 7.4) saccharose (250 mM) at 4° C. and the microsomal proteins are assayed and stored at −196° C. (liquid nitrogen).
The enzymatic reaction measures the conversion of stearic acid (a C18:0 fatty acid) into oleic acid (C18:1 fatty acid) by SCD-1. The enzymatic reaction is started by adding 125 μg of microsomal fraction of HepG2 cells to tubes (total reaction volume of 500 μl) containing 62 μM of stearic acid (45 μM of stearic acid and 17 μM of [^14C] stearic acid) in a phosphate buffer at 100 mM (pH 7.16) with 7.2 mM of ATP, 0.54 mM of CoA, 6 mM of MgCl2, 0.8 mM of NADH and the inhibitory compound or the carrier (0.1% DMSO). The tubes are incubated for 20 minutes at 37° C. and the enzymatic reaction is then stopped by adding KOH (12%) and saponification for 30 minutes at 80° C. After acidification (3N HCl), the fatty acids are extracted twice with ethyl ether, evaporated under nitrogen before being taken up with a methanol/dichloromethane (3:1) mixture. The product of the reaction (C18:1) is separated from the substrate of the reaction (C18:0) by HPLC (Perkin Elmer, C18 reverse phase column) coupled to a on-line radioactivity detector (FlowOne). Enzymatic activity is calculated in picomoles of stearic acid converted into oleic acid per minute and per mg of protein. For each inhibitory compound, an inhibition % is determined relatively to the reference enzymatic activity (carrier 0.1% DMSO). Sterculic acid is the reference inhibitory compound (Gomez F. E., Bauman D. E., Ntambi J. M., Fox B. G. Effects of sterculic acid on stearoyl-CoA desaturase in differentiating […] adipocytes. Biochem Biophys Res Commun. 300 316-326 (2003)).

Row | inhibition at 10 µM [%] | Compound
1 | 75 | CCCCn1nc(N2CCC(Oc3ccccc3C(F)(F)F)CC2)c(=O)n(C)c1=O [Example 13, 2-butyl-4-methyl-6-[4-(2-trifluoromethyl-phenoxy)-piperidin-1-yl]-2H-[1,2,4]triazine-3,5-dione]
2 | 64 | CC(C)CCn1nc(N2CCN(C(=O)c3cc(F)ccc3C(F)(F)F)CC2)c(=O)n(C)c1=O [Example 48, 6-[4-(5-fluoro-2-trifluoromethyl-benzoyl)-piperazin-1-yl]-4-methyl-2-(3-methyl-butyl)-2H-[1,2,4]triazine-3,5-dione]
3 | 57 | Cn1c(=O)c(N2CCC(Oc3ccccc3C(F)(F)F)CC2)nn(CCCC(=O)c2cccs2)c1=O [Example 19, 4-methyl-2-(4-oxo-4-thiophen-2-yl-butyl)-6-[4-(2-trifluoromethyl-phenoxy)-piperidin-1-yl]-2H-[1,2,4]triazine-3,5-dione]
4 | 84 | Cn1c(=O)[nH]nc(N2CCN(C(=O)c3cc(F)ccc3C(F)(F)F)CC2)c1=O [Example 69, 6-[4-(5-fluoro-2-trifluoromethyl-benzoyl)-piperazin-1-yl]-4-methyl-2H-[1,2,4]triazine-3,5-dione]
5 | 74 | CCOCCn1nc(N2CCC(Oc3ccccc3C(F)(F)F)CC2)c(=O)n(C)c1=O [Example 15, 2-(2-ethoxy-ethyl)-4-methyl-6-[4-(2-trifluoromethyl-phenoxy)-piperidin-1-yl]-2H-[1,2,4]triazine-3,5-dione]
6 | 82 | Cn1nc(N2CCC(Oc3ccccc3Cl)CC2)c(=O)n(C)c1=O [Example 27, 6-[4-(2-chloro-phenoxy)-piperidin-1-yl]-2,4-dimethyl-2H-[1,2,4]triazine-3,5-dione]
7 | 11 | CCCCCCCn1c(=O)c(N2CCN(C(=O)c3ccccc3C(F)(F)F)CC2)nn(C)c1=O [Example 1, 4-heptyl-2-methyl-6-[4-(2-trifluoromethyl-benzoyl)-piperazin-1-yl]-2H-[1,2,4]triazine-3,5-dione]
8 | 71 | Cn1c(=O)c(N2CCN(Cc3ccccc3C(F)(F)F)CC2)nn(CCCC(F)(F)F)c1=O [Example 57, 4-methyl-2-(4,4,4-trifluoro-butyl)-6-[4-(2-trifluoromethyl-benzyl)-piperazin-1-yl]-2H-[1,2,4]triazine-3,5-dione]
9 | 92 | Cn1nc(N2CCC(Oc3ccccc3C(F)(F)F)CC2)c(=O)n(C)c1=O [Example 11, 2,4-dimethyl-6-[4-(2-trifluoromethyl-phenoxy)-piperidin-1-yl]-2H-[1,2,4]triazine-3,5-dione]

test system: not given; test: not given; settings: not given

Row | Compound | melting point [°C]
10 | Cn1cc(N2CCN(C(=O)c3ccccc3C(F)(F)F)CC2)c(=O)n(C)c1=O [Example 62, 1,3-dimethyl-5-[4-(2-trifluoromethyl-benzoyl)-piperazin-1-yl]-1H-pyrimidine-2,4-dione] | 163
11 | Cn1cc(N2CCN(Cc3ccccc3)CC2)c(=O)n(C)c1=O | 162
12 | Cn1nc(N2CCC(Oc3ccccc3)C2)c(=O)n(C)c1=O (stereo not drawn) [Example 38, 2,4-dimethyl-6-(3-phenoxy-pyrrolidin-1-yl)-2H-[1,2,4]triazine-3,5-dione] | 80
13 | Cn1nc(N2CCC(Oc3cc(F)ccc3Cl)CC2)c(=O)[nH]c1=O [Example 90, 6-(4-(2-chloro-5-fluorophenoxy)piperidin-1-yl)-2-methyl-1,2,4-triazine-3,5(2H, 4H)-dione] | 172
14 | O=c1[nH]nc(N2CCC(Oc3ccccc3C(F)(F)F)CC2)c(=O)n1CCCC(F)(F)F [Example 72, 4-(4,4,4-trifluoro-butyl)-6-[4-(2-trifluoromethyl-phenoxy)-piperidin-1-yl]-2H-[1,2,4]triazine-3,5-dione] | 102
15 | Cn1nc(N2CCC(Cc3cc(C(F)(F)F)ccc3F)CC2)c(=O)n(C)c1=O [Example 39, 6-[4-(2-fluoro-5-trifluoromethyl-benzyl)-piperidin-1-yl]-2,4-dimethyl-2H-[1,2,4]triazine-3,5-dione] | 116
16 | Cn1nc(N2CCC(C(=O)c3ccc(F)cc3)CC2)c(=O)n(C)c1=O [Example 36, 6-[4-(4-fluoro-benzoyl)-piperidin-1-yl]-2,4-dimethyl-2H-[1,2,4]triazine-3,5-dione] | 129
17 | Cn1nc(N2CCC(Oc3ccccc3C(F)(F)F)C2)c(=O)n(C)c1=O (stereo not drawn) [Example 37, 2,4-dimethyl-6-[3-(2-trifluoromethyl-phenoxy)-pyrrolidin-1-yl]-2H-[1,2,4]triazine-3,5-dione] | 84
18 | Cn1c(=O)c(N2CCC(Oc3ccccc3C(F)(F)F)CC2)nn(C2Cc3ccccc3C2=O)c1=O (stereo not drawn) [Example 87, 4-methyl-2-(1-oxo-indan-2-yl)-6-[4-(2-trifluoromethyl-phenoxy)-piperidin-1-yl]-2H-[1,2,4]triazine-3,5-dione] | 110
19 | Cn1nc(N2CCN(C(=O)c3ccccc3C(F)(F)F)C(=O)C2)c(=O)n(C)c1=O [Example 53, 2,4-dimethyl-6-[3-oxo-4-(2-trifluoromethyl-benzoyl)-piperazin-1-yl]-2H-[1,2,4]triazine-3,5-dione] | 90
20 | COc1ccccc1OC1CCN(c2nn(C)c(=O)n(C)c2=O)CC1 [Example 34, 6-[4-(2-methoxy-phenoxy)-piperidin-1-yl]-2,4-dimethyl-2H-[1,2,4]triazine-3,5-dione] | 78
21 | Cn1nc(N2CCN(c3cccc(C(F)(F)F)c3)CC2)c(=O)n(C)c1=O | 163

More lines, now with the values ahead:

Row | melting point [°C] | Compound
22 | 58 | CC(C)C(C(=O)N1CCN(c2nn(C)c(=O)n(C)c2=O)CC1)c1ccc(Cl)cc1 (stereo not drawn) [Example 49, 6-{4-[2-(4-chloro-phenyl)-3-methyl-butyryl]-piperazin-1-yl}-2,4-dimethyl-2H-[1,2,4]triazine-3,5-dione]
23 | 198 | Cn1nc(N2CCN(C(=O)/C=C/c3ccc([N+](=O)[O-])cc3)CC2)c(=O)n(C)c1=O [Example 50, 2,4-dimethyl-6-{4-[(E)-3-(4-nitro-phenyl)-acryloyl]-piperazin-1-yl}-2H-[1,2,4]triazine-3,5-dione]
24 | 128 | Cn1nc(N2CCN(C(=O)c3ccc(F)cc3C(F)(F)F)CC2)c(=O)n(C)c1=O [Example 41, 6-[4-(4-fluoro-2-trifluoromethyl-benzoyl)-piperazin-1-yl]-2,4-dimethyl-2H-[1,2,4]triazine-3,5-dione]
25 | 119 | Cn1nc(N2CCN(C(=O)c3ccccc3Br)CC2)c(=O)n(C)c1=O [Example 45, 6-[4-(2-bromo-benzoyl)-piperazin-1-yl]-2,4-dimethyl-2H-[1,2,4]triazine-3,5-dione]
26 | 93 | Cn1nc(N2CCN(C(=O)Oc3cccc(C(F)(F)F)c3)CC2)c(=O)n(C)c1=O [Example 51, 4-(2,4-dimethyl-3,5-dioxo-2,3,4,5-tetrahydro-[1,2,4]triazin-6-yl)-piperazine-1-carboxylic Acid 3-trifluoromethyl-phenyl Ester]
27 | 90 | Cn1nc(N2CCN(C(=O)c3cc(C(F)(F)F)ccc3C(F)(F)F)CC2)c(=O)n(C)c1=O [Example 40, 6-[4-(2,5-Bis-trifluoromethyl-benzoyl)-piperazin-1-yl]-2,4-dimethyl-2H-[1,2,4]triazine-3,5-dione]
28 | 60 | Cc1ccccc1C(=O)N1CCN(c2nn(C)c(=O)n(C)c2=O)CC1 [Example 43, 2,4-dimethyl-6-[4-(2-methyl-benzoyl)-piperazin-1-yl]-2H-[1,2,4]triazine-3,5-dione]
29 | 92 | Cn1nc(N2CCN(C(=O)c3cccc(C(F)(F)F)c3)CC2)c(=O)n(C)c1=O [Example 44, 2,4-dimethyl-6-[4-(3-trifluoromethyl-benzoyl)-piperazin-1-yl]-2H-[1,2,4]triazine-3,5-dione]
30 | 132 | Cn1nc(N2CCN(C(=O)c3ccccc3)CC2)c(=O)n(C)c1=O [Example 46, 6-(4-benzoyl-piperazin-1-yl)-2,4-dimethyl-2H-[1,2,4]triazine-3,5-dione]
